Assay results from US20060079453A1, “Hla binding peptides and their uses” (priority 2002, published 2006).
Where two headings read alike, the source gives them in different places. No end group written: not given here.

Key:
Test in all cases: biochemical
Type in all cases: binding
HLA-DR DRB4*0101 (DR53) = HLA-DR DRB4*0101 (DR53) (Homo sapiens, UniProt P01903+P13762, G164S)
HLA-DR DRB1*1501 (DR15) = HLA-DR DRB1*1501 (DR15) (Homo sapiens, UniProt P01903+P01911)
HLA-DR DRB1*0401 (DR4) = HLA-DR DRB1*0401 (DR4) (Homo sapiens, UniProt P01903+P01911, A100K/A169T/F76Y/I96L/K127E/L162R/M171V/N62H/P40V/Q125Y/R42H/S133A/S149N/S66Y/V115G/V209L/W38E)
HLA-DR DRB1*0701 (DR7) = HLA-DR DRB1*0701 (DR7) (Homo sapiens, UniProt P01903+P01911, A100R/A102G/A103Q/D57E/D86V/E43K/F76Y/K127E/L162R/M171V/P40G/Q125H/Q99D/R33Q/R42Y/R54Q/S133A/S66F/T210M/V115G/Y107V/Y59L/Y89S)
HLA-DR DRB1*0101 (DR1) = HLA-DR DRB1*0101 (DR1) (Homo sapiens, UniProt P01903+P01911, A100R/D57E/F55L/F60I/F76Y/I96L/L162R/M171V/P40L/Q125E/R42F/V115G/Y59C)
HLA-DR DRB1*1302 (DR13) = HLA-DR DRB1*1302 (DR13) (Homo sapiens, UniProt P01903+P01911, A100E/A169T/K41T/L162R/M171V/P40S/Q125H/Q178H/Q39Y/Q99D/R42S/S66N/T262R/V115G/W38E/Y61H)
HLA-DR DRB5*0101 (DR51) = HLA-DR DRB5*0101 (DR51) (Homo sapiens, UniProt P01903+Q30154)

Sequence of HLA-DR DRB1*1302 (DR13) (P01903 26-254 limits assumed, other chains not shown): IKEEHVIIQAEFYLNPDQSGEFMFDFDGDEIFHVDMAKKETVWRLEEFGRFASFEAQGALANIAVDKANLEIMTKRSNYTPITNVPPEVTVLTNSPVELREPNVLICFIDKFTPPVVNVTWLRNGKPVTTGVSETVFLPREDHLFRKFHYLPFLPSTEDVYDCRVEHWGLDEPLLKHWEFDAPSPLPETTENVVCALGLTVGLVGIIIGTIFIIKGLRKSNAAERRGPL

IRNLALQTLPAM
IC50 (HLA-DR DRB4*0101 (DR53); DRB4 *0101): 2 nM

IRNLALQTLPAMCNVY
IC50 (HLA-DR DRB4*0101 (DR53); DRB4 *0101): 1.9 nM

KKNIIALLIIPPKIH
IC50 (HLA-DR DRB1*1501 (DR15); read-out: DRBI *1501): 32 nM
IC50 (HLA-DR DRB4*0101 (DR53); read-out: DRB4 *0101): 8.2 nM

KQPFRPQQPYPQ
IC50 (HLA-DR DRB4*0101 (DR53); DRB4 *0101): 56 nM

KSLLSTNLPYGRTNL
IC50 (HLA-DR DRB1*0401 (DR4); DRB1 *0401): 690 nM
IC50 (HLA-DR DRB1*0701 (DR7); DRB1 *0701): 50000 nM

KYVKQNTLKLAT
IC50 (HLA-DR DRB1*0401 (DR4)): 6.2 nM
IC50 (HLA-DR DRB1*0101 (DR1)): 9.9 nM

LEDLLMGTLGIVCPI
IC50 (HLA-DR DRB1*1302 (DR13); read-out: DRBI *1302): 1690 nM
IC50 (HLA-DR DRB4*0101 (DR53); read-out: DRB4 *0101): 1800 nM
IC50 (HLA-DR DRB5*0101 (DR51); read-out: DRB5 *0101): 9480 nM

LGQQQPFPPQ
IC50 (HLA-DR DRB4*0101 (DR53); DRB4 *0101): 151 nM

MIMIKFMGVIYIMII [MJMIKFMGVIYIMII]
IC50 (HLA-DR DRB1*1302 (DR13); DRBI *1302): 102 nM
IC50 (HLA-DR DRB1*1501 (DR15); DRBI *1501): 23600 nM

NLALQTLPAMCNVY
IC50 (HLA-DR DRB4*0101 (DR53); DRB4 *0101): 27 nM

NPVVHFFKNIVT
IC50 (HLA-DR DRB1*1501 (DR15); DRBI *1501): 23 nM
IC50 (HLA-DR DRB5*0101 (DR51); DRB5 *0101): 10000 nM

NPVVHFFKNIVTPR
IC50 (HLA-DR DRB1*1501 (DR15); DRBI *1501): 3.7 nM
IC50 (HLA-DR DRB5*0101 (DR51); DRB5 *0101): 1890 nM

NYELSKKAVIFTPIY [NYELSKXAVIFTPIY]
IC50 (HLA-DR DRB1*1302 (DR13); DRBI *1302): 410 nM
IC50 (HLA-DR DRB1*1501 (DR15); DRBI *1501): 537 nM
IC50 (HLA-DR DRB5*0101 (DR51); DRB5 *0101): 10600 nM

P(X)KQNTLKLAT
IC50 (HLA-DR DRB1*0101 (DR1); read-out: DRB1 *0101): 1.7 nM

PATYGIIVPVLTSLF
IC50 (HLA-DR DRB1*1501 (DR15); DRBI *1501): 2560 nM
IC50 (HLA-DR DRB1*0401 (DR4); DRB1 *0401): 15 nM
IC50 (HLA-DR DRB1*0101 (DR1); DRB1 *0101): 1.03 nM
IC50 (HLA-DR DRB5*0101 (DR51); DRB5 *0101): 52 nM

PAYEKLSAEQSPPPY
IC50 (HLA-DR DRB1*0401 (DR4); DRB1 *0401): 479 nM

PEFLEQRRAAVDTYC
IC50 (HLA-DR DRB1*0401 (DR4); DRB1 *0401): 80000 nM
IC50 (HLA-DR DRB1*0101 (DR1); DRB1 *0101): 5000 nM

PFRPQQPYPQ
IC50 (HLA-DR DRB4*0101 (DR53); DRB4 *0101): 42 nM

PKPFRPQQPYPQ
IC50 (HLA-DR DRB4*0101 (DR53); DRB4 *0101): 3.4 nM

PKYFKQGFLKGAT
IC50 (HLA-DR DRB1*0401 (DR4)): 800 nM
IC50 (HLA-DR DRB1*0101 (DR1)): ≥ 50000 nM

PKYFKQRLLKFAT
IC50 (HLA-DR DRB1*0401 (DR4); read-out: DRB1 *0401): 400 nM

PKYGKQIDLKGAT
IC50 (HLA-DR DRB1*0101 (DR1); DRB1 *0101): ≥ 50000 nM

PQPFKPQQPYPQ
IC50 (HLA-DR DRB4*0101 (DR53); DRB4 *0101): 19 nM

PQPFRKQQPYPQ
IC50 (HLA-DR DRB4*0101 (DR53); DRB4 *0101): 22 nM

PQPFRPQKPYPQ
IC50 (HLA-DR DRB4*0101 (DR53); DRB4 *0101): 22 nM

PQPFRPQQP
IC50 (HLA-DR DRB4*0101 (DR53); DRB4 *0101): 19 nM

PQPFRPQQPYKQ
IC50 (HLA-DR DRB4*0101 (DR53); DRB4 *0101): 35 nM

PQPFRPQQPYP
IC50 (HLA-DR DRB4*0101 (DR53); DRB4 *0101): 14 nM

PQPFRPQQPYPK
IC50 (HLA-DR DRB4*0101 (DR53); DRB4 *0101): 22 nM

PQPFRPQQPYPQ
IC50 (HLA-DR DRB4*0101 (DR53); DRB4 *0101): 15 nM

QFLGQQQPF
IC50 (HLA-DR DRB4*0101 (DR53); DRB4 *0101): 5.3 nM

QFLGQQQPFPP
IC50 (HLA-DR DRB4*0101 (DR53); DRB4 *0101): 2.3 nM

QFLGQQQPFPPQ
IC50 (HLA-DR DRB4*0101 (DR53); DRB4 *0101): 2.8 nM

QKQLLTNHLINTPKI
IC50 (HLA-DR DRB4*0101 (DR53); read-out: DRB4 *0101): 904 nM

QKQVQMMIMIKFMGV
IC50 (HLA-DR DRB1*1501 (DR15); read-out: DRBI *1501): 363 nM
IC50 (HLA-DR DRB4*0101 (DR53); read-out: DRB4 *0101): 5.3 nM
IC50 (HLA-DR DRB5*0101 (DR51); read-out: DRB5 *0101): 915 nM

QKQVQMMIMTKFMGV
IC50 (HLA-DR DRB1*0101 (DR1); read-out: DRB1 *0101): 121 nM
IC50 (HLA-DR DRB1*0701 (DR7); read-out: DRB1 *0701): 3620 nM

QKWAAVVVPS
IC50 (HLA-DR DRB1*0401 (DR4); DRB1 *0401): 1000 nM
IC50 (HLA-DR DRB1*0101 (DR1); DRB1 *0101): ≥ 50000 nM

QNILFSNAPLGPQFP
IC50 (HLA-DR DRB1*0401 (DR4); DRB1 *0401): 195 nM

RIVYRDNNPYGVCIM
IC50 (HLA-DR DRB1*1501 (DR15); read-out: DRBI *1501): 821 nM
IC50 (HLA-DR DRB4*0101 (DR53); read-out: DRB4 *0101): 1400 nM
IC50 (HLA-DR DRB5*0101 (DR51); read-out: DRB5 *0101): 20500 nM

RNGYRALMDKSLHVGTQCALTRR
IC50 (HLA-DR DRB1*0401 (DR4); DRB1 *0401): 512 nM

SAFLESQSMNKIGDD
IC50 (HLA-DR DRB1*1501 (DR15); DRBI *1501): 18700 nM
IC50 (HLA-DR DRB4*0101 (DR53); DRB4 *0101): 302 nM
IC50 (HLA-DR DRB1*0101 (DR1); DRB1 *0101): 549 nM
IC50 (HLA-DR DRB5*0101 (DR51); DRB5 *0101): 243 nM
IC50 (HLA-DR DRB1*0701 (DR7); DRB1 *0701): 523 nM

SAVPVYIYFNTWTTCQSIAF
IC50 (HLA-DR DRB1*1501 (DR15); read-out: DRBI *1501): 92 nM
IC50 (HLA-DR DRB5*0101 (DR51); read-out: DRB5 *0101): 20000 nM

SMEYKKDFLITARKY
IC50 (HLA-DR DRB1*1302 (DR13); read-out: DRBI *1302): 3820 nM
IC50 (HLA-DR DRB1*1501 (DR15); read-out: DRBI *1501): 4610 nM

TWQLNGEELIQDM
IC50 (HLA-DR DRB1*0101 (DR1); read-out: DRB1 *0101): ≥ 50000 nM

VGIRTPVLTSLFNKV
IC50 (HLA-DR DRB4*0101 (DR53); read-out: DRB4 *0101): 97 nM
IC50 (HLA-DR DRB5*0101 (DR51); read-out: DRB5 *0101): 80 nM

VRTLQQLLMGTCTIV
IC50 (HLA-DR DRB1*1302 (DR13); read-out: DRBI *1302): 37 nM
IC50 (HLA-DR DRB1*1501 (DR15); read-out: DRBI *1501): 1830 nM
IC50 (HLA-DR DRB5*0101 (DR51); read-out: DRB5 *0101): > 15300 nM

YAR(15A)RQTTLKA
IC50 (HLA-DR DRB1*0401 (DR4); read-out: DRB1 *0401): 0.35 nM
IC50 (HLA-DR DRB1*0101 (DR1); read-out: DRB1 *0101): 1.6 nM
IC50 (HLA-DR DRB1*0701 (DR7); read-out: DRB1 *0701): 8330 nM

YARFLALTTLRARA
IC50 (HLA-DR DRB1*0401 (DR4); read-out: DRB1 *0401): 0.28 nM
IC50 (HLA-DR DRB1*0101 (DR1); read-out: DRB1 *0101): 0.98 nM

YFNNFTVSFWLRVPK
IC50 (HLA-DR DRB1*0101 (DR1)): ≥ 50000 nM

YSFFPSI [YSFFPSI]
IC50 (HLA-DR DRB1*0101 (DR1); DRB1 *0101): ≥ 50000 nM
